Experimental findings from patent publication US4438201A, “Amidohydrolase having ability to depantothenylate an antibiotic” (Sanraku-Ocean Co., Ltd., priority 1981, dated 1984) are described below.

The test system of test [1] is amidohydrolase (enzyme of this invention). Put plainly: Substrate specificity for N-acyl-amino acids (deacylation, standard assay). In kind it is biochemical, Streptomyces fulvoviridis A933. As to conditions: N-chloroacetyl-L-phenylalanine as 100. The method, then: The relative activity in Table 1 refers to N-chloroacetyl-L-phenylalanine as 100.
(§1) Ten microliters of 0.2 M piperazine-N,N'-bis(2-ethanesulfonic acid) [=PIPES] buffer, pH 7.3, and 10 μl of 100 mM N-chloroacetyl-L-phenylalanine (adjusted to pH 6-7 with NaOH) are dissolved in 20 μl of water. After 10 μl of an enzyme solution (30-50 μg/ml) is added, the mixture is incubated at 37° C. for 15 minutes. Then, 50 μl of 50% acetic acid is added to stop the enzymatic reaction. The amount of L-phenylalanine produced from the substrate in the reaction solution is determined by the Yemm-Cocking ninhydrin colorimetric method (E. W. Yemm & E. C. Cocking: Analyst, Vol. 80, page 209, 1955) or with an amino acid automatic analyzer (Model 835-50, Hitachi Limited).

Test [2] has the same test system. Put plainly: Effects of metal ions, chelating agents and -SH inhibitors on enzyme activity. The test is classed as biochemical, Streptomyces fulvoviridis A933. The procedure:
as §1
The relative activity in Table 2 refers to the activity of the enzyme in the absence of such chemical as 100.

The test system of test [3] is cell-free homogenate of Streptomyces argenteolus. Put plainly: Example 4: action of cell-free homogenate on PS-5 and OA-6129A. The test is classed as biochemical. As to conditions: tested as in Example 3. The procedure:
Glycerol (4 g), 0.5 g of peptone, 0.2 g of glucose, 0.2 g of soluble starch, 0.5 g of Essan Miit®, 0.5 g of dry yeast, 0.5 g of NaCl and 0.2 g of CaCO3 were dissolved in 100 ml of tap water. Each 25 ml portion of the suspension was distributed in 250 ml Erlenmeyer flasks, and sterilized at 120° C. for 15 minutes. After cooling the culture medium, Streptomyces argenteolus was inoculated and cultivated at 28° C. for 68 hours with shaking. 20 ml of a cell extract was obtained. The same procedure of treatment as in Example 1 yielded 20 ml of a cell-free homogenate which was tested as explained in Example 3.

Test [4] concerns amidohydrolase (enzyme of this invention). Put plainly: Experiment A: action of the enzyme on PS-5 and OA-6129A, HVPE bioautography and pantothenate bioassay. The test is classed as biochemical, Streptomyces fulvoviridis A933. The method, then: A mixture (50 μl) consisting of 10 μl of 0.2 M potassium phosphate buffer, pH 7.4, 20 μl of an antibiotic PS-5 solution (500 μg/ml) or an antibiotic OA-6129A solution (500 μg/ml), 10 μl of the enzyme solution obtained in Example 1, and 10 μl of water was incubated at 37° C. for 3 hours.
As a control, the mixture minus the enzyme solution was allowed to react under the same conditions.
3 μl of each of the resulting reaction solutions was spotted on Watmann No. 1 filter paper, and subjected to electrophoresis for 50 minutes at 1500 V/30 cm with Veronal buffer, pH 8.6. After electrophoresis, the products were bioautographed with Comamonas terrigena B-996 as assay organism.

Test [5] has as its system cell-free homogenate of Streptomyces cattleya (acylase). Put plainly: Example 2: action of cell-free homogenate on PS-5 and OA-6129A. The test is classed as biochemical, Streptomyces cattleya (NRRL 8057). The procedure:
Glucose (2.5 g), 1 g of corn steep liquor, 0.5 g of Pharmamedia® (a product of Traders Oil Mill Company), 0.5 g of yeast extract and 0.3 g of CaCO3 were dissolved in 100 ml of tap water, and the pH of the suspension was adjusted to 7.0. Then, 50 ml portions of the suspension were distributed in 250 ml Erlenmeyer flasks, and sterilized at 120° C. for 15 minutes. After cooling Streptomyces cattleya (NRRL 8057) was inoculated, and the flasks were cultivated at 28° C. for 90 hours with shaking.
Mycelia were collected by centrifugation and treated by the same procedure as in Example 1 to give 20 ml of a cell-free homogenate. With this fresh homogenate, the enzymological properties of Streptomyces cattleya acylase were examined.
A mixture containing 10 μl of 0.2 M potassium phosphate buffer, pH 7.4, 10 μl of an antibiotic PS-5 solution (500 μg/ml) or an antibiotic OA-6129A solution (500 μg/ml), 10 μl of acyl-CoA (5 μmoles/ml) and 20 μl of the cell-free homogenate was incubated at 37° C. for 4 hours. The product was analysed by HVPE in the same manner as in Experiment A.
The control reaction mixtures contained either no cell-free homogenate or no acyl-CoA. Acetyl-CoA and n-propionyl-CoA were used as acyl-CoA.

For test [6], the system named is cell-free homogenate of Streptomyces cremeus subsp. auratilis. Put plainly: Example 3: action of cell-free homogenate on PS-5 and OA-6129A. In kind it is biochemical. The conditions noted are these: 37° C., 4 hours. The method, then:
Soluble starch (5.2 g), 1.2 g of Essan-Miit, 0.16 g of NaCl, 0.08 g of K2 HPO4 and 0.04 g of MgSO4.7H2 O were dissolved in 80 ml of tap water and 40 ml portions of the suspension were filled in two 250 ml Erlenmeyer flasks. After autoclaving at 120° C. for 15 minutes, Streptomyces cremeus subsp. auratilis was inoculated, and cultivated at 28° C. for 68 hours. Using the same procedure as in Example 1, 20 ml of the cell-free homogenate was obtained. For confirmation of the enzyme activity, the following reactions were studied.
A mixture (50 μl) consisting of 10 μl of 0.2 M potassium phosphate buffer, pH 7.4, 10 μl of an antibiotic PS-5 solution (500 μg/ml) or an antibiotic OA-6129A solution (500 μg/ml), 20 μl of the cell-free homogenate and 10 μl of water was kept at 37° C. for 4 hours. The products were assayed by HVPE in the same way as in Experiment A.
As a control, the above reaction was carried out without the cell-free homogenate.

The subject of test [7] is amidohydrolase (enzyme of this invention). Put plainly: Experiment B: acyl exchange of OA-6129A with acyl-CoA. In kind it is biochemical, Streptomyces fulvoviridis A933. The conditions noted are these: acetyl-, n-propionyl-, n-butyryl- or glutaryl-CoA; 37° C., 3 hours. The method, then: A mixture consisting of 10 μl of 0.2 M potassium phosphate buffer, pH 7.4, 10 μl of a solution of antibiotic OA-6129A (500 μg/ml), 10 μl of acyl-CoA (5 μmoles/ml), 10 μl of the enzyme preparation from Example 1 and 10 μl of water was allowed to react at 37° C. for 3 hours. The product was assayed by high voltage paper electrophoresis (HVPE) in the same way as in Experiment A.
As controls, the same mixture minus acyl-CoA and the same mixture minus the enzyme solution were incubated under the same conditions as mentioned above.
Acetyl-CoA, n-propionyl-CoA, n-butyryl-CoA and glutaryl-CoA were used as acyl-CoA.

Where [8] appears, read: additive 0.1 mM, activity without additive as 100, 15 min.
Where [9] appears, read: additive 1 mM, activity without additive as 100, 15 min.

Each structure is given as a SMILES string.

In test [1], `CSCC[C@H](NC=O)C(=O)O` [N--Formyl-L-methionine] registered a Relative activity of 112.7. `[Cl][Hg][Cl]` [HgCl2]: the Relative activity in test [2] (additive 0.01 mM, activity without additive as 100, 15 min) is recorded as 84.5; in test [2] (setting [8]), 6.4; in test [2] (setting [9]), 0. `[Cl-].[Cl-].[Zn+2]` [ZnCl2]: in test [2] (setting [9]), the Relative activity came out at 7.7.

Turning to `CC(=O)N[C@H](CC(C)C)C(=O)O` [N--Acetyl-D-leucine], in test [1], the Relative activity is on record as 0. As for `O=C(O)CN(CCN(CC(=O)O)CC(=O)O)CC(=O)O` [EDTA, ethylenediaminetetracetic acid], in test [2] (pipes buffer, pH 7.3, 15 min, 1000 µM), the Relative activity is listed as 95.8. In test [1], `CC(C)C[C@H](NC(=O)CCl)C(=O)O` [N--Chloroacetyl-L-leucine] returned a Relative activity of 348.5.

For the compound `CC(=O)N[C@@H](C)C(=O)O` [N--Acetyl-L-alanine], the Relative activity in test [1] is 163.8. Take `[Cl][Sn][Cl]` [SnCl2]: in test [2] (setting [9]), the Relative activity is listed as 64.4. In test [1], `CC(=O)NCC(=O)O` [N--Acetyl-glycine] returned a Relative activity of 23.9. On the same count and under the same terms, the same measure for `CSCC[C@@H](NC(C)=O)C(=O)O` [N--Acetyl-D-methionine]: 0. In turn, `[Cl][Mn][Cl]` [MnCl2] gave a Relative activity in test [2] (setting [9]) of 74.3. Take `[Cl][Cu][Cl]` [CuCl2]: the results for the Relative activity in test [2] (setting [8]) and in test [2] (setting [9]) were 87.5 and 0, respectively. As for `[Cl][Pb][Cl]` [PbCl2], the Relative activity in test [2] (setting [9]) is reported as 58.8. On to `c1cnc2c(c1)ccc1cccnc12` [o-PT, ophenanthroline], for which the Relative activity in test [2] (setting [9]) is listed as 56.4. The compound `CC(=O)N[C@H](Cc1ccccc1)C(=O)O` [N--Acetyl-D-phenylalanine] had a Relative activity in test [1] of 0.

`O=S(=O)([O-])[O-].[Ni+2]` [NiSO4] came in with a Relative activity in test [2] (setting [9]) of 79.4. Consider `[Co+2]` [Co^++], for which, in test [2] (known acylases are activated or stabilized by 0.5 to 10 mM), the “Effect of the ion on the enzyme (in words)” value is reported as “inhibited”. `CC(=O)N[C@@H](Cc1ccccc1)C(=O)O` [N--Acetyl-L-phenylalanine] showed a Relative activity in test [1] of 15.3. Still for that read-out and setting: to `CC(=O)N[C@@H](CC(C)C)C(=O)O` [N--Acetyl-L-leucine] belongs 92.8.

With `CC(=O)N[C@H](C(=O)O)C(C)C` [N--Acetyl-L-valine], the Relative activity in test [1] amounted to 32.4. On the same count and under the same terms, the same measure for `CC(=O)N[C@H](C)C(=O)O` [N--Acetyl-D-alanine]: 0. Take `[Cl-].[Cl-].[Co+2]` [CoCl2]: the Relative activity in test [2] (additive 0.2 mM, activity without additive as 100, 15 min) is 92.3; in test [2] (setting [9]), 82.4; in test [2] (additive 2 mM, activity without additive as 100, 15 min), 3.8; in test [2] (additive 4 mM, activity without additive as 100, 15 min) it was 0. With `O=C(CCl)N[C@@H](Cc1ccccc1)C(=O)O` [N--Chloroacetyl-L-phenylalanine], the Relative activity in test [1] is 100. As for `[Cl-].[Cl-].[Mg+2]` [MgCl2], in test [2] (setting [9]), the Relative activity worked out at 93.6.

Turning to `[Cl][Cd][Cl]` [CdCl2], the Relative activity in test [2] (setting [9]) was 10.2. In test [1], `CSCC[C@H](NC(C)=O)C(=O)O` [N--Acetyl-L-methionine] had a Relative activity of 262.1. Still for that read-out and setting: the same measure for `CC(C)C[C@H](NC=O)C(=O)O` [N--Formyl-L-leucine]: 16.4. With `CCC1C(=O)N2C(C(=O)O)=C(SCCNC(C)=O)CC12` (centres unmarked) [PS-5], the “Deacetylation by the cell-free homogenate” value in test [3] and in test [6] was “no ability to deacetylate” throughout. Further, in test [4] (37° C., 3 hours, pH 7.4), the “Deacetylation of the substrate by the enzyme” value was “did not attack antibiotic PS-5 at all”. Besides, the “Susceptibility of the substrate to the cell-free homogenate” value in test [5] (irrespective of the presence of acyl-CoA, 37° C., 4 hours) is listed as “not susceptible”. In the case of `O=C(O)c1cc[c]([Hg][Cl])cc1` [p-CMB, pchloromercuribenzoic acid], the Relative activity in test [2] (setting [9]) is 0. Turning to `CC(=O)N[C@@H](CCCCN)C(=O)O` [N--α-Acetyl-L-lysine], the Relative activity in test [1] was determined as 39.8. `CCC1C(=O)N2C(C(=O)O)=C(SCCNC(=O)CCNC(=O)C(O)C(C)(C)CO)CC12` (centres unmarked) [OA-6129A]: in test [7], the “Exchange of the pantotheinyl group with the acyl group of acyl-CoA” value is “catalyzes the exchange of the pantotheinyl group”. For the same compound, the “Depantothenylation by the cell-free homogenate” value in test [3] is recorded as “does depantothenylate”; in test [5] (without acyl-CoA, 37° C., 4 hours), “catalyzes the depantothenylation”; in test [6], “has the ability to eliminate the pantotheinyl group”. For the same compound, the “Depantothenylation of the substrate by the enzyme” value in test [4] (37° C., 3 hours, pH 7.4) is “removes the pantotheinyl group”. In test [4] (bioassay with Saccharomyces carlsbergensis (ATCC 9080), enzyme present), the “Concentration of pantothenate in the reaction solution” value was determined as 8 µg/mL. For the same compound, the “Acyl exchange with acyl-CoA by the cell-free homogenate” value in test [5] (acetyl-CoA present) was “transform to PS-5”. Regarding `O=S(=O)([O-])[O-].[Fe+2]` [FeSO4], the Relative activity in test [2] (setting [9]) is 53.2.

In test [1], `CC(C)[C@H](NC(=O)CCl)C(=O)O` [N--Chloroacetyl-L-valine] yielded a Relative activity of 351.1. In the case of `CC(=O)N[C@@H](CCC(=O)O)C(=O)O` [N--Acetyl-L-glutamic acid], the Relative activity in test [1] came to 2.7. Same read-out and setting: the same measure for `CC(=O)N[C@@H](C(=O)O)C(C)C` [N--Acetyl-D-valine]: 0.
